# According to the kinase profiling compilation of Christmann-Franck et al. (2016):
# Assays:
# Test in all cases: KINOMEscan competition binding
# Conditions in all cases: compound 1.0 µM
# ACVR1 (human) = ACVR1 (human) (UniProt Q04771)
# ACVR2A (human) = ACVR2A (human) (UniProt P27037)
# CDK11B (human) = CDK11B (human) (UniProt P21127)
# CIT (human) = CIT (human) (UniProt O14578)
# CSK (human) = CSK (human) (UniProt P41240)
# DAPK2 (human) = DAPK2 (human) (UniProt Q9UIK4)
# DAPK3 (human) = DAPK3 (human) (UniProt O43293)
# DCLK3 (human) = DCLK3 (human) (UniProt Q9C098)
# [1] = test system: EGFR (human), P00533 [A750P; 747-749 del]
# [2] = test system: EGFR (human), P00533 [G719C]
# EPHA6 (human) = EPHA6 (human) (UniProt Q9UF33)
# [3] = test system: FLT3 (human), P36888 [D835Y]
# GSK3A (human) = GSK3A (human) (UniProt P49840)
# IRAK4 (human) = IRAK4 (human) (UniProt Q9NWZ3)
# [4] = test system: KIT (human), P10721 [V559D/T670I]
# LATS2 (human) = LATS2 (human) (UniProt Q9NRM7)
# MAP2K7 (human) = MAP2K7 (human) (UniProt O14733)
# MAP3K7 (human) = MAP3K7 (human) (UniProt O43318)
# MAP4K2 (human) = MAP4K2 (human) (UniProt Q12851)
# MAP4K3 (human) = MAP4K3 (human) (UniProt Q8IVH8)
# MAP4K4 (human) = MAP4K4 (human) (UniProt O95819)
# MAPK6 (human) = MAPK6 (human) (UniProt Q16659)
# MAPKAPK5 (human) = MAPKAPK5 (human) (UniProt Q8IW41)
# MARK4 (human) = MARK4 (human) (UniProt Q96L34)
# MYO3A (human) = MYO3A (human) (UniProt Q8NEV4)
# NLK (human) = NLK (human) (UniProt Q9UBE8)
# PIP4K2B (human) = PIP4K2B (human) (UniProt P78356)
# PKN3 (M.tuberculosis) = PKN3 (M.tuberculosis) (UniProt Q6P5Z2)
# PRKACA (human) = PRKACA (human) (UniProt P17612)
# PRKCI (human) = PRKCI (human) (UniProt P41743)
# PRKG1 (human) = PRKG1 (human) (UniProt Q13976)
# RET (human) = RET (human) (UniProt P07949)
# SBK1 (human) = SBK1 (human) (UniProt Q52WX2)
# SGK1 (human) = SGK1 (human) (UniProt O00141)
# STK17B (human) = STK17B (human) (UniProt O94768)
# STK3 (human) = STK3 (human) (UniProt Q13188)
# TNIK (human) = TNIK (human) (UniProt Q9UKE5)
# TXK (human) = TXK (human) (UniProt P42681)
# YES1 (human) = YES1 (human) (UniProt P07947)
# Sequence of STK3 (human) (Q13188 whole entry, looked up): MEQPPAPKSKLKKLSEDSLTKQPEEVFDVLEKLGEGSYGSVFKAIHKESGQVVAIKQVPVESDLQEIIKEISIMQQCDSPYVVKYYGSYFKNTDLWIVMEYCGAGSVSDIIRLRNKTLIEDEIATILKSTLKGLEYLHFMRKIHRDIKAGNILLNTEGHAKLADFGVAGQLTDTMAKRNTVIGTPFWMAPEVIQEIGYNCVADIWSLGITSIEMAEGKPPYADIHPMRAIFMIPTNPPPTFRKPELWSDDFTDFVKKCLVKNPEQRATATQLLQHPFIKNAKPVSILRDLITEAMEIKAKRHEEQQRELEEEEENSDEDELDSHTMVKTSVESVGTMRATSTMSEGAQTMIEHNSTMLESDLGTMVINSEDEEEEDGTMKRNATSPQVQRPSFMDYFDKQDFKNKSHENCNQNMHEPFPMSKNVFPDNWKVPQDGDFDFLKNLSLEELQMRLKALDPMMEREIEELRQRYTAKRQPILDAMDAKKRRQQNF
# Sequence of PRKG1 (human) (Q13976 whole entry, looked up): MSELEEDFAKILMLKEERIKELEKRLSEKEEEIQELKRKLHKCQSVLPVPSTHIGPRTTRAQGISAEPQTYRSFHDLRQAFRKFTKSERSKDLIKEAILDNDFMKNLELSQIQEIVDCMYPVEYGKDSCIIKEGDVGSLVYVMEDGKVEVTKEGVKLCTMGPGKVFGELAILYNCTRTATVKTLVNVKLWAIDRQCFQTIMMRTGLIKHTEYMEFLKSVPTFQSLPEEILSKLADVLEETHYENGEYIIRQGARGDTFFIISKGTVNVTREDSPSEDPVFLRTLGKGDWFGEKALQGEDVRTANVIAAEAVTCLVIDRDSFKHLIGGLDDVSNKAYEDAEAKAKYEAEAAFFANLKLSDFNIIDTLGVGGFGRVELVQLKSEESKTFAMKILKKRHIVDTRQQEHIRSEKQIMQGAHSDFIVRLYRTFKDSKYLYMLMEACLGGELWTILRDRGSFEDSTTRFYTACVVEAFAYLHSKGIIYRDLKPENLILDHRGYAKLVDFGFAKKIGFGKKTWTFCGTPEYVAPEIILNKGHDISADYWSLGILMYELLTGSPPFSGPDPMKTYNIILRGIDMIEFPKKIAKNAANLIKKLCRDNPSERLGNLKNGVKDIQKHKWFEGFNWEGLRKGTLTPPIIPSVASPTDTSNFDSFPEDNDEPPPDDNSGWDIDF
# Sequence of TNIK (human) (Q9UKE5 whole entry, looked up): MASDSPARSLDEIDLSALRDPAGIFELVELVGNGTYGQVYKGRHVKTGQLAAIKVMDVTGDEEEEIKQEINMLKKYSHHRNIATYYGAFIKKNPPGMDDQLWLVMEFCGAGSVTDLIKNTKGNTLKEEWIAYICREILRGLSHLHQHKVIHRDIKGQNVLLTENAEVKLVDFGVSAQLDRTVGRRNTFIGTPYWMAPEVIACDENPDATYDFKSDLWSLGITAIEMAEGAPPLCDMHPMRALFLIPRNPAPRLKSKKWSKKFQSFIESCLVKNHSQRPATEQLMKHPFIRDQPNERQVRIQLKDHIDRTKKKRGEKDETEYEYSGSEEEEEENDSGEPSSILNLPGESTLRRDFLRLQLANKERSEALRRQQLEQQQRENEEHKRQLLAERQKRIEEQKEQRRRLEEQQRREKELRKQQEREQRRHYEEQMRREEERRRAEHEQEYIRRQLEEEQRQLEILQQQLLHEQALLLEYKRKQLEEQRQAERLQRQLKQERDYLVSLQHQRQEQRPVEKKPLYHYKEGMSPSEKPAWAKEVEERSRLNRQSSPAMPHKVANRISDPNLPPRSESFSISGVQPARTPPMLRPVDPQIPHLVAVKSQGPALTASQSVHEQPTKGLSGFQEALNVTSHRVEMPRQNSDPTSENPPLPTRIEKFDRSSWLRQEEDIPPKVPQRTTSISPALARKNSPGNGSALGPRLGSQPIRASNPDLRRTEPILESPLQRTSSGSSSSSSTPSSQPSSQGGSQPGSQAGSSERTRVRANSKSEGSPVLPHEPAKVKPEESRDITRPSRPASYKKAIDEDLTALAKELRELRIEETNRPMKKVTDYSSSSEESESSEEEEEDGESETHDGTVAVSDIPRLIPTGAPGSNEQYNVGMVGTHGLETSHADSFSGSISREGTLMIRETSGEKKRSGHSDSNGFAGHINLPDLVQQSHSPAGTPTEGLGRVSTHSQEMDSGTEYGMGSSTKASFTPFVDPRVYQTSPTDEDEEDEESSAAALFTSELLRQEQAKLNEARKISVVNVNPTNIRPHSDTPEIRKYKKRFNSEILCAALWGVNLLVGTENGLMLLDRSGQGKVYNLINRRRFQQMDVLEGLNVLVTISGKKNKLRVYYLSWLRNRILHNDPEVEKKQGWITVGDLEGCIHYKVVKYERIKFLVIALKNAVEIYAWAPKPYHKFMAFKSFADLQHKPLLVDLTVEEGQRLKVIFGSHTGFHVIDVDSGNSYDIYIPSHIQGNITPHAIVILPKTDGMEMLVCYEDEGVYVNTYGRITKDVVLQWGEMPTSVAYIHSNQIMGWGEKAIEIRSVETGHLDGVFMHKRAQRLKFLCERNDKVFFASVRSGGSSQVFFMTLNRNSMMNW
# Sequence of MARK4 (human) (Q96L34 whole entry, looked up): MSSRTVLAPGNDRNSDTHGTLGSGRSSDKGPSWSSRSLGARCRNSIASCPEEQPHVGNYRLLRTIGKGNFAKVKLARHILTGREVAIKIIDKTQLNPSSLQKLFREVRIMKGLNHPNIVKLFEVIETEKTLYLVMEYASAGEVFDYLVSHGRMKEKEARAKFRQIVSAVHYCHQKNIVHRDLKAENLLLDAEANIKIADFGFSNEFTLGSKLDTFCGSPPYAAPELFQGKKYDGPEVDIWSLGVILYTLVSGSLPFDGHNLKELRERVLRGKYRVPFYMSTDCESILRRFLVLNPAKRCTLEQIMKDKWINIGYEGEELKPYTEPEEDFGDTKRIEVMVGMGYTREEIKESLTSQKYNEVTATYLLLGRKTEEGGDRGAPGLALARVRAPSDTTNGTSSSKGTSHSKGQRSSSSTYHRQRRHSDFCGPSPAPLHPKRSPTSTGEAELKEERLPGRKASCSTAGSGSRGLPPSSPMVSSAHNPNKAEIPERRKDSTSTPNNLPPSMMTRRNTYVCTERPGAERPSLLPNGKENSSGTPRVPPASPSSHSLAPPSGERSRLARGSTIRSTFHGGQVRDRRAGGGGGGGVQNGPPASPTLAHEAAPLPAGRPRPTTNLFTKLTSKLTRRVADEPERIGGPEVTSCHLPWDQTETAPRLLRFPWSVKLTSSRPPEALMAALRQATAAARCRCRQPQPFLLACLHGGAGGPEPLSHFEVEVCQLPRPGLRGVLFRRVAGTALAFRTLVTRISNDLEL
# Sequence of DAPK2 (human) (Q9UIK4 whole entry, looked up): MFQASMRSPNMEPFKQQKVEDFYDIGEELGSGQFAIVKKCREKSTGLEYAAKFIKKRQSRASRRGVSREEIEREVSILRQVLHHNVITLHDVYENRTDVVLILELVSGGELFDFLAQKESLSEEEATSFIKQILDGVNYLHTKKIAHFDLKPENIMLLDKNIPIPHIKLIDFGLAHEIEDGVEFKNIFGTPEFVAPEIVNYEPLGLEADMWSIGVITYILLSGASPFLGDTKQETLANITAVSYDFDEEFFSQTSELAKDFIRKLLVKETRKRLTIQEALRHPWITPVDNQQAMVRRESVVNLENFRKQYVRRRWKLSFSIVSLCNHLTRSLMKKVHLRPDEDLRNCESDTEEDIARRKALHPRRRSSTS
# Sequence of MAP4K3 (human) (Q8IVH8 whole entry, looked up): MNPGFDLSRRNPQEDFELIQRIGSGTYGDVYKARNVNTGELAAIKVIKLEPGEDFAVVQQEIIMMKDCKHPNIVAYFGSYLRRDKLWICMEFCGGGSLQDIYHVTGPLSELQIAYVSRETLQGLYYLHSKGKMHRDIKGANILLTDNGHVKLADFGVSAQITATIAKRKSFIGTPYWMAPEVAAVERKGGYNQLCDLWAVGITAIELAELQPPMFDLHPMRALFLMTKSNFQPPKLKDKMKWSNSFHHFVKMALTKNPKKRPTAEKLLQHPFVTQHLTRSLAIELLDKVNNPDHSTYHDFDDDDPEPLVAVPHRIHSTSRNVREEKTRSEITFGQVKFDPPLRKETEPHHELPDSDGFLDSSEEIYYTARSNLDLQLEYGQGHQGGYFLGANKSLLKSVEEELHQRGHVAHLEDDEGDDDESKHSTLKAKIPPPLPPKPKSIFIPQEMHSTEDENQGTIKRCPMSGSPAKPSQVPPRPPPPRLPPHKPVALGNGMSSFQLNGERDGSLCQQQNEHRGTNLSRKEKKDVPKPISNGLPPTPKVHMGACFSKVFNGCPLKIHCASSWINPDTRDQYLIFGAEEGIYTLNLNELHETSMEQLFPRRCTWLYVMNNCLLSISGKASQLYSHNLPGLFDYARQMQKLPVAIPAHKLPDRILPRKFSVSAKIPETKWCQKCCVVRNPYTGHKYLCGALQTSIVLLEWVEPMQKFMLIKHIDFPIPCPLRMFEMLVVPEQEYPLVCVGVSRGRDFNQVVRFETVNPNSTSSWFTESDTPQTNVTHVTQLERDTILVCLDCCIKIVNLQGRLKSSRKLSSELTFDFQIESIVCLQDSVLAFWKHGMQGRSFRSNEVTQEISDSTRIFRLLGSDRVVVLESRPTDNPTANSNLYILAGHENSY
# Sequence of DAPK3 (human) (O43293 whole entry, looked up): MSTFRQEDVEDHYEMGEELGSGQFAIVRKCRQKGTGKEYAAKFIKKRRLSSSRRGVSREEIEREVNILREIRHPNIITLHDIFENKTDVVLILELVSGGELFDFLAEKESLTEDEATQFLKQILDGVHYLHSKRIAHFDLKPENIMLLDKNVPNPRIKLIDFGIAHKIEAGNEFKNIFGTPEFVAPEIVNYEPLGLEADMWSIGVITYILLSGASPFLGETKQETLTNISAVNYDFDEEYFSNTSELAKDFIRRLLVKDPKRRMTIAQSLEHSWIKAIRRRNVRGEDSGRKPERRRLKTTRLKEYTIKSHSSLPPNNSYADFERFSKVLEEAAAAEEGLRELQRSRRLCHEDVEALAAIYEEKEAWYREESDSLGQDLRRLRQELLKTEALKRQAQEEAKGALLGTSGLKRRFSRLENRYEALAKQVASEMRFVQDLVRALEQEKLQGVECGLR
smiles,measurement,setting,value
CNc1nc(Nc2ccc(C(=O)N3CCOCC3)cc2OC)ncc1Cl,"kinase still bound, per cent of control",ACVR1 (human),95%
same,"kinase still bound, per cent of control",ACVR2A (human),75%
same,residual activity,CDK11B (human),100%
same,"kinase still bound, per cent of control",CIT (human),100%
same,"kinase still bound, per cent of control",CSK (human),100%
same,"kinase still bound, per cent of control",DAPK2 (human),66%
same,"kinase still bound, per cent of control",DAPK3 (human),63%
same,"kinase still bound, per cent of control",DCLK3 (human),100%
same,"kinase still bound, per cent of control",[1],100%
same,"kinase still bound, per cent of control",[2],100%
same,"kinase still bound, per cent of control",EPHA6 (human),100%
same,"kinase still bound, per cent of control",[3],72%
same,"kinase still bound, per cent of control",GSK3A (human),100%
same,"kinase still bound, per cent of control",IRAK4 (human),100%
same,"kinase still bound, per cent of control",[4],100%
same,"kinase still bound, per cent of control",LATS2 (human),100%
same,"kinase still bound, per cent of control",MAP2K7 (human),100%
same,"kinase still bound, per cent of control",MAP3K7 (human),79%
same,"kinase still bound, per cent of control",MAP4K2 (human),100%
same,"kinase still bound, per cent of control",MAP4K3 (human),100%
same,"kinase still bound, per cent of control",MAP4K4 (human),77%
same,"kinase still bound, per cent of control",MAPK6 (human),100%
same,"kinase still bound, per cent of control",MAPKAPK5 (human),100%
same,"kinase still bound, per cent of control",MARK4 (human),45%
same,"kinase still bound, per cent of control",MYO3A (human),63%
same,"kinase still bound, per cent of control",NLK (human),100%
same,"kinase still bound, per cent of control",PIP4K2B (human),83%
same,"kinase still bound, per cent of control",PKN3 (M.tuberculosis),85%
same,residual activity,PRKACA (human),100%
same,"kinase still bound, per cent of control",PRKCI (human),100%
same,"kinase still bound, per cent of control",PRKG1 (human),82%
same,"kinase still bound, per cent of control",RET (human),96%
same,"kinase still bound, per cent of control",SBK1 (human),100%
same,"kinase still bound, per cent of control",SGK1 (human),82%
same,"kinase still bound, per cent of control",STK17B (human),14%
same,"kinase still bound, per cent of control",STK3 (human),76%
same,"kinase still bound, per cent of control",TNIK (human),100%
same,"kinase still bound, per cent of control",TXK (human),100%
same,"kinase still bound, per cent of control",YES1 (human),100%
